{
  "source": "patent US20050203062A1",
  "about": "“Use of tagatose in laxatives” (Spherix Incorporated, priority 2002, published 2005)",
  "origin": "cited, not measured here",
  "key": {"Type 2 diabetes": {"test_system": "Type 2 diabetes", "details": "clinical trials"}, "[1]": {"details": "amounts approaching 30 or 40 grams per day"}},
  "data": [
    {"compound": "O=C(CO)[C@@H](O)[C@@H](O)[C@H](O)CO", "note": "[tagatose, D-tagatose]", "values": [
      {"measurement": "rise in blood glucose", "setting": "blood glucose; after tagatose itself", "value": "does not produce a rise in blood glucose"},
      {"measurement": "rise in blood glucose from subsequent intake of glucose-producing foods", "setting": "blood glucose; subsequent intake of glucose-producing foods", "value": "blunts the rise in blood glucose"},
      {"measurement": "treatment of Type 2 diabetes", "setting": "Type 2 diabetes", "value": "effective treatment for Type 2 diabetes"},
      {"measurement": "laxation effect", "setting": "[1]", "value": "known to have a Taxation effect"}
    ]}
  ]
}
